The record followed here is US20250051338A1, “TYK2 DEGRADERS AND USES THEREOF” (Kymera Therapeutics, Inc., priority 2021, published 2025).

Common to all, as to assay type: cell-based
The target in test [1] is T1, TYK2 (Homo sapiens, UniProt P29597). In words: TYK2 degradation MSD assay in OCI-LY10 cells. Details: endogenous in cells; host or cells: EBV-B cells. The settings on record: 4 to 24 hours incubation, read-out: TYK2 MSD DC50 rating in OCI-LY10. The method, boiled down:
(§1)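 DC50 values reflect dose-dependent decrease of TYK2 protein, read by MSD after cells were exposed to compound (top 1 to 10 μM, 1:3, 9 doses) for 4 to 24 hours at 37° C.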

Test [2] concerns the target T1, TYK2. In words: TYK2 degradation MSD assay in human PBMC cells. Further details: endogenous in cells; host or cells: human PBMC. The settings on record: 4 to 24 hours incubation, read-out: TYK2 MSD DC50 rating in human PBMC. The method, boiled down:
as §1

The target of test [3] is T1, TYK2. Description: TYK2 degradation MSD assay in EBV-B cells. Further details: endogenous in cells; host or cells: EBV-B cells. The following applies: 4 to 24 hours incubation, read-out: TYK2 MSD DC50 rating in EBV-B. The method, boiled down:
as §1

T1 sequence (P29597 whole entry): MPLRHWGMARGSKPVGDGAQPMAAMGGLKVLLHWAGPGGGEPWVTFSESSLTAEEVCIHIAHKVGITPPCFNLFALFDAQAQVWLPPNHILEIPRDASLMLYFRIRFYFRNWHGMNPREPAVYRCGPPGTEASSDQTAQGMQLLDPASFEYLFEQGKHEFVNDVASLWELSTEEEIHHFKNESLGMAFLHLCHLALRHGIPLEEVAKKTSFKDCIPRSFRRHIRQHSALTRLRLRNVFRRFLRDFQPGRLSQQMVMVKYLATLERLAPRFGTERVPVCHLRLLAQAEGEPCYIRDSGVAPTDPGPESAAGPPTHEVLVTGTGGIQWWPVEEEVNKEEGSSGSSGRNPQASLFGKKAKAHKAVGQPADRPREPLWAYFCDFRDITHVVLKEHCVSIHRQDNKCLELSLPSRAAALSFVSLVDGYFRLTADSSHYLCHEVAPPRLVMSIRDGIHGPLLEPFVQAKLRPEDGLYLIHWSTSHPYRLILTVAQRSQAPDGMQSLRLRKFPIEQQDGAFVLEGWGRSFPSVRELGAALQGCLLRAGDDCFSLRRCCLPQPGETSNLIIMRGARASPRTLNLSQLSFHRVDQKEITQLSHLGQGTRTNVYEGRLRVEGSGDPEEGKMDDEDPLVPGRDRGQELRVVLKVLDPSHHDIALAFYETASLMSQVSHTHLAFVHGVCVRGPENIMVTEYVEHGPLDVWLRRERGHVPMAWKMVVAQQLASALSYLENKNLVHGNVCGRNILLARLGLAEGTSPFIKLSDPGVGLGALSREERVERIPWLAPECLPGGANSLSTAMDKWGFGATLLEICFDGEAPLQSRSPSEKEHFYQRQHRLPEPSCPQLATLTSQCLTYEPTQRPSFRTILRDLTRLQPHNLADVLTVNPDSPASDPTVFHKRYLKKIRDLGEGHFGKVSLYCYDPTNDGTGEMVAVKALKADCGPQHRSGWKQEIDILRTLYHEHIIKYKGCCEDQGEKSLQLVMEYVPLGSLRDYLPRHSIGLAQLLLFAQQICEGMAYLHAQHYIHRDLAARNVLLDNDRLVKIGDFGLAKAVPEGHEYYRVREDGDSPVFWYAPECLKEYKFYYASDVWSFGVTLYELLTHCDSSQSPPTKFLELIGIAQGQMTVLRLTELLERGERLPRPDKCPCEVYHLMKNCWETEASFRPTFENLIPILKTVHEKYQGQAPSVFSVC

A word on the DC50: it is the midpoint of the concentration-degradation curve. In the case of `CNc1cc(Nc2cccn(-c3cccc(C(=O)NCCCCc4ccc5c(c4)n(C)c(=O)n5C4CCC(=O)NC4=O)c3)c2=O)nn2c(C(=O)N[C@@H]3C[C@@H]3F)cnc12` (stereo partly drawn) [Example K219], the DC50 is more than 100 nM on TYK2 [1], 1 to 10 nM at TYK2 [2] and more than 100 nM at TYK2 [3].
As to `CNc1cc(Nc2cccn(-c3cccc(C(=O)NCCCCc4cccc5c4n(C)c(=O)n5C4CCC(=O)NC4=O)c3)c2=O)nn2c(C(=O)N[C@@H]3C[C@@H]3F)cnc12` (stereo partly drawn) [Example K220], the DC50 on TYK2 [1], at TYK2 [2] and at TYK2 [3] was more than 100 nM each time.
As for `CNc1cc(Nc2cccn(-c3cccc(C(=O)NCCCCCCc4ccc5c(c4)n(C)c(=O)n5C4CCC(=O)NC4=O)c3)c2=O)nn2c(C(=O)N[C@@H]3C[C@@H]3F)cnc12` (stereo partly drawn) [Example K221], the 50% degradation concentration (DC50) on TYK2 [1], on TYK2 [2] and on TYK2 [3] was more than 100 nM in each case.
Regarding `CNc1cc(Nc2cccn(-c3cccc(C(=O)NCCCCCCc4cccc5c4n(C)c(=O)n5C4CCC(=O)NC4=O)c3)c2=O)nn2c(C(=O)N[C@@H]3C[C@@H]3F)cnc12` (stereo partly drawn) [Example K222], the DC50 on TYK2 [1] was more than 100 nM; at TYK2 [2] it was 1 to 10 nM; at TYK2 [3] it was more than 100 nM.
`CNc1cc(Nc2cccn(-c3cccc(C(=O)NCCCCCCCCc4ccc5c(c4)n(C)c(=O)n5C4CCC(=O)NC4=O)c3)c2=O)nn2c(C(=O)N[C@@H]3C[C@@H]3F)cnc12` (stereo partly drawn) [Example K223]: the DC50 on TYK2 [1] is more than 100 nM; on TYK2 [2], 1 to 10 nM; at TYK2 [3], more than 100 nM.
With `CNc1cc(Nc2cccn(-c3cccc(C(=O)NCCCCCCCCc4cccc5c4n(C)c(=O)n5C4CCC(=O)NC4=O)c3)c2=O)nn2c(C(=O)N[C@@H]3C[C@@H]3F)cnc12` (stereo partly drawn) [Example K224], the DC50 on TYK2 [1] was more than 100 nM; on TYK2 [2], 10 to 100 nM; on TYK2 [3], more than 100 nM.
Regarding `CNc1cc(Nc2cccn(-c3cccc(C(=O)NCCCCCCCCCCc4ccc5c(c4)n(C)c(=O)n5C4CCC(=O)NC4=O)c3)c2=O)nn2c(C(=O)N[C@@H]3C[C@@H]3F)cnc12` (stereo partly drawn) [Example K225], the figures for the DC50 on TYK2 [1], on TYK2 [2] and at TYK2 [3] were more than 100 nM, 1 to 10 nM and more than 100 nM, respectively.
For `CNc1cc(Nc2cccn(-c3cccc(C(=O)NCCCCCCCCCCc4cccc5c4n(C)c(=O)n5C4CCC(=O)NC4=O)c3)c2=O)nn2c(C(=O)N[C@@H]3C[C@@H]3F)cnc12` (stereo partly drawn) [Example K226], the DC50 is more than 100 nM on TYK2 [1], 10 to 100 nM on TYK2 [2] and more than 100 nM on TYK2 [3].
For the compound `CNc1cc(Nc2cccn(-c3cccc(C(=O)NCCCCc4ccc5c(c4)n(C)c(=O)n5C4CCC(=O)NC4=O)c3)c2=O)nn2c(C(=O)N[C@@H]3C[C@@H]3F)cnc12` (stereo partly drawn) [Example K227], the DC50 at TYK2 [1], at TYK2 [2] and at TYK2 [3] was more than 100 nM in each case.
Take `CNc1cc(Nc2cccn(-c3cc(C(=O)NCCCCc4cccc5c4n(C)c(=O)n5C4CCC(=O)NC4=O)ccn3)c2=O)nn2c(C(=O)N[C@@H]3C[C@@H]3F)cnc12` (stereo partly drawn) [Example K228]: the DC50 on TYK2 [1] was more than 100 nM; at TYK2 [2], 1 to 10 nM; at TYK2 [3], more than 100 nM.
For `CNc1cc(Nc2cccn(-c3cc(C(=O)NCCCCCCc4ccc5c(c4)n(C)c(=O)n5C4CCC(=O)NC4=O)ccn3)c2=O)nn2c(C(=O)N[C@@H]3C[C@@H]3F)cnc12` (stereo partly drawn) [Example K229], the DC50 is more than 100 nM on TYK2 [1], less than 1 nM at TYK2 [2] and more than 100 nM on TYK2 [3].
As for `CNc1cc(Nc2cccn(-c3cc(C(=O)NCCCCCCc4cccc5c4n(C)c(=O)n5C4CCC(=O)NC4=O)ccn3)c2=O)nn2c(C(=O)N[C@@H]3C[C@@H]3F)cnc12` (stereo partly drawn) [Example K230], the DC50 on TYK2 [1] was more than 100 nM; on TYK2 [2], 1 to 10 nM; on TYK2 [3], more than 100 nM.
On to `CNc1cc(Nc2cccn(-c3cc(C(=O)NCCCCCCCCc4ccc5c(c4)n(C)c(=O)n5C4CCC(=O)NC4=O)ccn3)c2=O)nn2c(C(=O)N[C@@H]3C[C@@H]3F)cnc12` (stereo partly drawn) [Example K231], for which the DC50 was more than 100 nM on TYK2 [1], less than 1 nM on TYK2 [2] and more than 100 nM at TYK2 [3].
For the compound `CNc1cc(Nc2cccn(-c3cc(C(=O)NCCCCCCCCc4cccc5c4n(C)c(=O)n5C4CCC(=O)NC4=O)ccn3)c2=O)nn2c(C(=O)N[C@@H]3C[C@@H]3F)cnc12` (stereo partly drawn) [Example K232], the DC50 was more than 100 nM at TYK2 [1], 1 to 10 nM on TYK2 [2] and more than 100 nM on TYK2 [3].
As to `CNc1cc(Nc2cccn(-c3cc(C(=O)NCCCCCCCCCCc4ccc5c(c4)n(C)c(=O)n5C4CCC(=O)NC4=O)ccn3)c2=O)nn2c(C(=O)N[C@@H]3C[C@@H]3F)cnc12` (stereo partly drawn) [Example K233], the DC50 on TYK2 [1] was more than 100 nM; on TYK2 [2], 1 to 10 nM; at TYK2 [3], 1 to 10 nM.
Turning to `CNc1cc(Nc2cccn(-c3cc(C(=O)NCCCCCCCCCCc4cccc5c4n(C)c(=O)n5C4CCC(=O)NC4=O)ccn3)c2=O)nn2c(C(=O)N[C@@H]3C[C@@H]3F)cnc12` (stereo partly drawn) [Example K234], the DC50 on TYK2 [1], at TYK2 [2] and at TYK2 [3] was more than 100 nM in each case.
Take `CNc1cc(Nc2cccn(-c3cccc(C(=O)NCCOCCOCCc4ccc5c(c4)n(C)c(=O)n5C4CCC(=O)NC4=O)c3)c2=O)nn2c(C(=O)N[C@@H]3C[C@@H]3F)cnc12` (stereo partly drawn) [Example K235]: the DC50 on TYK2 [1] is more than 100 nM; on TYK2 [2], 1 to 10 nM; on TYK2 [3], more than 100 nM.
In the case of `CNc1cc(Nc2cccn(-c3cccc(C(=O)NCCOCCOCCc4cccc5c4n(C)c(=O)n5C4CCC(=O)NC4=O)c3)c2=O)nn2c(C(=O)N[C@@H]3C[C@@H]3F)cnc12` (stereo partly drawn) [Example K236], the DC50 was more than 100 nM at TYK2 [1], 1 to 10 nM on TYK2 [2] and more than 100 nM at TYK2 [3].
Take `CNc1cc(Nc2cccn(-c3cc(C(=O)NCCOCCOCCc4ccc5c(c4)n(C)c(=O)n5C4CCC(=O)NC4=O)ccn3)c2=O)nn2c(C(=O)N[C@@H]3C[C@@H]3F)cnc12` (stereo partly drawn) [Example K237]: the DC50 at TYK2 [1], on TYK2 [2] and on TYK2 [3] was more than 100 nM each time.
For `CNc1cc(Nc2cccn(-c3cc(C(=O)NCCOCCOCCc4cccc5c4n(C)c(=O)n5C4CCC(=O)NC4=O)ccn3)c2=O)nn2c(C(=O)N[C@@H]3C[C@@H]3F)cnc12` (stereo partly drawn) [Example K238], the DC50 on TYK2 [1], on TYK2 [2] and on TYK2 [3] was more than 100 nM throughout.
Consider `CNc1cc(Nc2cccn(-c3cccc(C(=O)NCCOCCOCCOCCOCCc4ccc5c(c4)n(C)c(=O)n5C4CCC(=O)NC4=O)c3)c2=O)nn2c(C(=O)N[C@@H]3C[C@@H]3F)cnc12` (stereo partly drawn) [Example K239], for which the DC50 at TYK2 [1], on TYK2 [2] and at TYK2 [3] was more than 100 nM each time.
Regarding `CNc1cc(Nc2cccn(-c3cccc(C(=O)NCCOCCOCCOCCOCCc4cccc5c4n(C)c(=O)n5C4CCC(=O)NC4=O)c3)c2=O)nn2c(C(=O)N[C@@H]3C[C@@H]3F)cnc12` (stereo partly drawn) [Example K240], the DC50 on TYK2 [1], on TYK2 [2] and on TYK2 [3] was more than 100 nM throughout.
For the compound `CNc1cc(Nc2cccn(-c3cc(C(=O)NCCOCCOCCOCCOCCc4ccc5c(c4)n(C)c(=O)n5C4CCC(=O)NC4=O)ccn3)c2=O)nn2c(C(=O)N[C@@H]3C[C@@H]3F)cnc12` (stereo partly drawn) [Example K241], the DC50 at TYK2 [1], at TYK2 [2] and at TYK2 [3] was more than 100 nM throughout.
For the compound `CNc1cc(Nc2cccn(-c3cc(C(=O)NCCOCCOCCOCCOCCc4cccc5c4n(C)c(=O)n5C4CCC(=O)NC4=O)ccn3)c2=O)nn2c(C(=O)N[C@@H]3C[C@@H]3F)cnc12` (stereo partly drawn) [Example K242], the DC50 on TYK2 [1], at TYK2 [2] and at TYK2 [3] was more than 100 nM each time.
As for `CNc1cc(Nc2cccn(-c3cccc(C(=O)NCCOCCOCCOCCOCCOCCOCCc4ccc5c(c4)n(C)c(=O)n5C4CCC(=O)NC4=O)c3)c2=O)nn2c(C(=O)N[C@@H]3C[C@@H]3F)cnc12` (stereo partly drawn) [Example K243], the half-maximal degradation concentration (DC50) on TYK2 [1], on TYK2 [2] and at TYK2 [3] was more than 100 nM each time.
On to `CNc1cc(Nc2cccn(-c3cc(C(=O)NCCOCCOCCOCCOCCOCCOCCc4cccc5c4n(C)c(=O)n5C4CCC(=O)NC4=O)ccn3)c2=O)nn2c(C(=O)N[C@@H]3C[C@@H]3F)cnc12` (stereo partly drawn) [Example K244], for which the DC50 on TYK2 [1], at TYK2 [2] and at TYK2 [3] was more than 100 nM throughout.
For `CNc1cc(Nc2cccn(-c3cc(C(=O)NCCOCCOCCOCCOCCOCCOCCc4ccc5c(c4)n(C)c(=O)n5C4CCC(=O)NC4=O)ccn3)c2=O)nn2c(C(=O)N[C@@H]3C[C@@H]3F)cnc12` (stereo partly drawn) [Example K245], the DC50 on TYK2 [1], at TYK2 [2] and at TYK2 [3] was more than 100 nM throughout.
In the case of `CNc1cc(Nc2cccc(C(=O)NCCCCc3ccc4c(c3)n(C)c(=O)n4C3CCC(=O)NC3=O)c2)nn2c(C(=O)N[C@@H]3C[C@@H]3F)cnc12` (stereo partly drawn) [Example K247], the DC50 on TYK2 [1], on TYK2 [2] and at TYK2 [3] was more than 100 nM each time.
On to `CNc1cc(Nc2cccc(C(=O)NCCCCc3cccc4c3n(C)c(=O)n4C3CCC(=O)NC3=O)c2)nn2c(C(=O)N[C@@H]3C[C@@H]3F)cnc12` (stereo partly drawn) [Example K248], for which the DC50 at TYK2 [1], at TYK2 [2] and on TYK2 [3] was more than 100 nM throughout.
As to `CNc1cc(Nc2cccc(C(=O)NCCCCCCc3ccc4c(c3)n(C)c(=O)n4C3CCC(=O)NC3=O)c2)nn2c(C(=O)N[C@@H]3C[C@@H]3F)cnc12` (stereo partly drawn) [Example K249], the DC50 at TYK2 [1], on TYK2 [2] and at TYK2 [3] was more than 100 nM in each case.
As for `CNc1cc(Nc2cccc(C(=O)NCCCCCCc3cccc4c3n(C)c(=O)n4C3CCC(=O)NC3=O)c2)nn2c(C(=O)N[C@@H]3C[C@@H]3F)cnc12` (stereo partly drawn) [Example K250], the DC50 is more than 100 nM on TYK2 [1], less than 1 nM on TYK2 [2] and more than 100 nM at TYK2 [3].
